Experimental data published in US10857230B2, “Co-therapy comprising a small molecule CSF-1R inhibitor and an agonistic antibody that specifically binds CD40 for the treatment of cancer” (Janssen Biotech, Inc., priority 2017, dated 2020).

Test system: MC38 murine colon carcinoma cells
Assay: MC38 Tumor Size Assay (Example 1)
Format: in vivo, C57BL/6 mice
Conditions: for Median TTE: 61-day study
Description: The mice were housed on irradiated Enrich-o'Cobs™ bedding in static microisolators on a 12-hour light cycle at 20-22° C. (68-72° F.) and 40-60% humidity.
MC38 murine colon carcinoma cells were grown in Dulbecco's Modified Eagle Medium (DMEM) supplemented with 10% fetal bovine serum and 2 mM glutamine, 100 units/mL penicillin G sodium, 100 μg/mL streptomycin sulfate, and 25 μg/mL gentamicin.
The MC38 colon cells used for implantation were harvested during log phase growth and re-suspended in cold PBS. Mice were anesthetized with isoflurane prior to implantation. Each mouse was injected subcutaneously in the right flank with 1×10^6 tumor cells (0.1 mL cell suspension) and tumors were monitored as their volumes approached the target range of 350 to 500 mm^3. […] Tumors were measured with calipers twice weekly in two dimensions. Tumor size was calculated using the formula:
where w=width and l=length, in mm, of a tumor. Tumor weight was estimated with the assumption that 1 mg is equivalent to 1 mm^3 of tumor volume.
The compound of formula (I) was stored at room temperature and antibody stock solutions were stored at 4° C. upon receipt.
Each week of dosing, the compound of formula (I) was dissolved in 0.5% HPMC to yield a 1.0 mg/mL dosing solution. The dosing solution was stored at 4° C., protected from light. The rat IgG2a isotype and anti-CSF1R dosing solutions were prepared fresh each day by diluting aliquots of the stock solutions with PBS to yield 1.0 mg/mL dosing solutions. The dosing solutions were stored at 4° C., protected from light. The anti-mCD40 dosing solution was prepared fresh each day by diluting an aliquot of the stock solution with PBS to yield a 0.1 mg/mL dosing solution. The dosing solution was stored at 4° C., protected from light.
On Day 1 of the study, fourteen groups of C57BL/6 mice (n=10) began dosing according to the following protocol.
The vehicle (0.5% HPMC) and the compound of formula (I) were administered orally (p.o.). The rat IgG2a isotype control, anti-mCD40, and anti-CSF1R were administered intraperitoneally (i.p.). Rat IgG2a(2A3) was administered at […]. The compound of formula (I) and anti-CSF1R were administered at 10 mg/kg, and anti-mCD40 was administered at 1 mg/kg. The dosing volume for all animals was 10 mL/kg (0.2 mL per 20-g mouse) and was adjusted for body weight.
Tumors were measured using calipers twice per week. […] TGI (tumor growth inhibition) analysis was performed on Day 15. The MTV (n), the median tumor volume for the number of animals, n, on Day 15, was determined for each group. Percent tumor growth inhibition (% TGI) was defined as the difference between the MTV of the designated control group (Group 1) and the MTV of the drug-treated group, expressed as a percentage of the MTV of the control group: […]
The data set for TGI analysis included all animals in a group, except those that died due to treatment-related or non-treatment related causes
Animals were monitored individually for tumor growth until Day 61. The study protocol specified a tumor growth delay assay based on the median time-to-endpoint (TTE) in a treated group versus the control group. Each animal was marked for tumor progression (TP) when its tumor reached the 1500 mm^3 volume endpoint. The TTE for each mouse was calculated with the following equation: […]
where b is the intercept and m is the slope of the line obtained by linear regression of a log-transformed tumor growth data set. The data set comprised the first observation that exceeded the study endpoint volume and the three consecutive observations that immediately preceded the attainment of the endpoint volume. […] In instances in which the log-transformed calculated TTE preceded the day prior to reaching endpoint or exceeded the day of reaching tumor volume endpoint, a linear interpolation was performed to approximate TTE.

[1] = Groups 3-7: all dosing from Day 1 (antibodies i.p. Days 1, 5, 9, formula (I) p.o. bid×14), formula (I) and anti-CSF1R 10 mg/kg, anti-mCD40 1 mg/kg, vs rat IgG2a control Group 1
[2] = Groups 9, 11, 13, 14: formula (I) 10 mg/kg p.o. bid×14 beginning Day 4 or anti-CSF1R 10 mg/kg i.p. Days 4, 8, 12, in combinations anti-mCD40 1 mg/kg i.p. Days 1, 5, 9, vs rat IgG2a control Group 1
[3] = number of animals of n=10, Groups 3-7: all dosing from Day 1 (antibodies i.p. Days 1, 5, 9, formula (I) p.o. bid×14), formula (I) and anti-CSF1R 10 mg/kg, anti-mCD40 1 mg/kg
[4] = number of animals of n=10, Groups 9, 11, 13, 14: formula (I) 10 mg/kg p.o. bid×14 beginning Day 4 or anti-CSF1R 10 mg/kg i.p. Days 4, 8, 12, in combinations anti-mCD40 1 mg/kg i.p. Days 1, 5, 9

Compound: CC1(C)CC=C(c2nc(C3CC(C)(C)OC(C)(C)C3)ccc2NC(=O)c2nc(C#N)c[nH]2)CC1 [compound of formula (I), 4-cyano-N-(2-(4,4-dimethylcyclohex-1-en-1-yl)-6-(2,2,6,6-tetramethyltetrahydro-2H-pyran-4-yl)pyridin-3-yl)-1H-imidazole-2-carboxamide]
- % TGI (Day 15, vs rat IgG2a control Group 1, Groups 3-7: all dosing from Day 1 (antibodies i.p. Days 1, 5, 9, formula (I) p.o. bid×14), formula (I) and anti-CSF1R 10 mg/kg, anti-mCD40 1 mg/kg): 21%
- % TGI (Day 15, vs rat IgG2a control Group 1, Groups 9, 11, 13, 14: formula (I) 10 mg/kg p.o. bid×14 beginning Day 4 or anti-CSF1R 10 mg/kg i.p. Days 4, 8, 12, in combinations anti-mCD40 1 mg/kg i.p. Days 1, 5, 9): −24%
- Median TTE (Groups 3-7: all dosing from Day 1 (antibodies i.p. Days 1, 5, 9, formula (I) p.o. bid×14), formula (I) and anti-CSF1R 10 mg/kg, anti-mCD40 1 mg/kg, 1500 mm^3 endpoint): 17.5 days
- % TGD [1]: 17%
- T − C [1]: 2.5 days
- Median TTE (Groups 9, 11, 13, 14: formula (I) 10 mg/kg p.o. bid×14 beginning Day 4 or anti-CSF1R 10 mg/kg i.p. Days 4, 8, 12, in combinations anti-mCD40 1 mg/kg i.p. Days 1, 5, 9, 1500 mm^3 endpoint): 11.4 days
- % TGD [2]: −24%
- T − C [2]: -3.6 days
- Regression CR [3]: 0
- Regression PR [3]: 0
- Regression CR [4]: 0
- Regression PR [4]: 0
- Regression TFS (tumor-free survivors Day 61, of n=10, Groups 3-7: all dosing from Day 1 (antibodies i.p. Days 1, 5, 9, formula (I) p.o. bid×14), formula (I) and anti-CSF1R 10 mg/kg, anti-mCD40 1 mg/kg): 0
- Regression TFS (tumor-free survivors Day 61, of n=10, Groups 9, 11, 13, 14: formula (I) 10 mg/kg p.o. bid×14 beginning Day 4 or anti-CSF1R 10 mg/kg i.p. Days 4, 8, 12, in combinations anti-mCD40 1 mg/kg i.p. Days 1, 5, 9): 0
